Columns and labels:
AT1R Tg rats = experiment: AT1R Tg rat model of progressive FSGS; format: in vivo
Procedure: Animals and chemicals: Littermates of wild-type (WT) and AT1R TgNeph-hAT1R/185 transgenic (AT1R Tg) rats were housed under a controlled environment with a 12-hour light-dark cycle and access to food and water ad libitum, unless otherwise described. All animal experiments were performed in accordance to the guidelines established and approved by the Animal Care and Use Committee at Brigham and Women's Hospital, Harvard Medical School (Animal Protocol No. 01538). AT1R Tg rats were placed in the Onset cohort when measured proteinuria was >5 mg/day (at approximately 12 weeks of age) on two separate 24-hour urine collections. AT1R Tg rats were placed in the Advanced cohort when measured proteinuria was >25 mg/day (at approximately 18 weeks of age) on two separate 24-hour urine collections. These thresholds were determined after detailed histologic and phenotypic characterization of AT1R Tg rats compared to WT littermates (all combined, n=91 WT rats and n=122 AT1R Tg rats were studied). The Dahl salt-sensitive (S) inbred strain is maintained at University of Mississippi Medical Center (UMMC) and was originally obtained from University of Toledo-College of Medicine (SS/Jr). All animal experiments performed at UMMC were in accordance to the guidelines established and approved by the Institutional Animal Care and Use Committee. Animals used for this studied were provided either low-salt diet [TD7034, 0.3% NaCl and/or high-salt diet [TD94217, 2.0% NaCl] from Harlan Teklad, Madison, Wis. For onset study, at 4 weeks of age, groups of age-matched male S were weaned to the low-salt diet and divided into two groups: vehicle (n=8) and AC1903 groups (n=8). At 6 weeks of age, both groups were placed on the high-salt diet and concurrently treated with either vehicle or AC1903 for 1-week (Onset). For Advanced study, similarly at 4 weeks of age, groups of age-matched male S were weaned to the low-salt diet and divided into two groups: vehicle (n=9) and AC1903 groups (n=11). At 6 weeks of age, both groups were placed on the high-salt diet. At week 7, concurrent with high-salt diet, animals were treated with either vehicle or AC1903 for 1-week (Advanced). At the conclusion of each study, animals were initially anesthetized under 2-3% isoflurane/O2 gas, a catheter attached to a fluid filled pressure transducer was placed in the aorta, isoflurane gas was reduced to 1.5%, and mean arterial pressure was measured for ˜5 min period using PowerLab 4/30 system (ADI Instruments, Co) as done previously. All chemicals were purchased from Sigma-Aldrich unless otherwise described.
Chemical preparation and IP administration: ML204 and AC1903 were prepared from powder in a single batch for each in vivo experiment to avoid variability. Immediately prior to injections, ML204 or AC1903 solution was placed on a heated shaker at 48° C. and 800 RPM. Vehicle was prepared in the same fashion. Injection volume was determined by body weight (2 mL vehicle/compound per kg body weight). Body weight was measured at the time of injection.
Urine collection and assay: For urine collections, rats were housed individually in a metabolic cage supplied with food and water. Urine was collected into a 50 mL falcon tube for 24 hours. Total urine volume was measured and then centrifuged at 3,200 rcf for 10 min at 4° C. Albumin quantification was done according to previously published protocol (11), involving multiple dilutions of urine from each animal compared to Bovine Serum Albumin (BSA) standards. Coumassie Blue stained gels were quantified by densitometry using ImageJ software. As an additional control, the rat ELISA Albumin kit (Exocell) was used for albumin quantification according to the manufacturer's recommendations and yielded the same results. Urine protein was measured using QuanTtest® Red Total Protein Assay System (Quantimetrix, Redondo Beach, Calif.) and expressed as mg protein/24 hours. […]

podocytes = experiment: ROS assay in wild-type podocytes treated with AngII; format: cell-based, mouse; settings: WT podocytes, AngII 10 μM, 30 μM compound, 3 hours
Procedure: Podocyte culture and viral transduction: Immortalized mouse podocytes were cultured as previously described (10, 11). Podocyte viral transduction was performed using lentivirus as previously described (10, 11). Briefly, lentivirus production was carried out in HEK293T cells at 60% confluence, and viral particles were collected two days after transfection and purified by centrifugation at 1,000 rcf for 5 min. Purified lentivirus was frozen at −80° C. until further use. Podocytes were transduced with lentivirus after 7 days of differentiation, and assays were performed 5 days after viral transduction.
ROS and cell viability assays: For ROS experiment in FIG. 4A, mature podocytes were cultured as previously described. Cells were incubated with CellRox Deep Red reagent (ThermoFisher) for 30 min at 37° C. Then cells were treated with DMSO, 10 μM angiotensin II, 10 μM angiotensin II with 30 μM AC1903, or 10 μM angiotensin II with 30 μM N-acetyl-L-cysteine (NAC) for 3 hours at 37° C. Cells were washed with PBS twice and fluorescence images were observed using Olympus IX71 microscopy. Fluorescence intensities were then analyzed using ImageJ software.

Structure (SMILES)	numbers of podocytes per glomerulus (AT1R Tg rats; AC1903-treated AT1R Tg rats)	BUN (AT1R Tg rats; AC1903 treatment)	body weight (AT1R Tg rats; AC1903 treatment)	creatinine (AT1R Tg rats; AC1903 treatment)	podocyte numbers compared to vehicle treated controls (AT1R Tg rats; Advanced, AC1903 50 mg/kg)	pseudocyst formation (AT1R Tg rats; Advanced, AC1903 50 mg/kg)	proteinuria (AT1R Tg rats; Advanced, AC1903 50 mg/kg twice daily i.p. for 7 days)	AngII-induced ROS (podocytes)	proteinuria progression (AT1R Tg rats; Advanced cohort, 25 mg/kg twice daily i.p., at 7 days and 14 days)	podocyte pseudocyst formation (AT1R Tg rats; Advanced, ML204)	podocyte numbers (morphometric analysis) (AT1R Tg rats; Advanced, ML204 vs PBS-treated Tg rats)	BUN (AT1R Tg rats; ML204 treatment)	body weight (AT1R Tg rats; ML204 treatment)	creatinine (AT1R Tg rats; ML204 treatment)	proteinuria (AT1R Tg rats; Onset cohort, ML204 twice daily i.p. for 7 days)
c1ccc(Cn2c(NCc3ccco3)nc3ccccc32)cc1 [AC1903]	approximately 120 podocytes/glom	did not affect	did not affect	did not affect	preserved numbers of podocytes	significant reduction in pseudocyst formation	sufficient to suppress severe proteinuria	blocked							
Cc1cc(N2CCCCC2)nc2ccccc12 [ML204, reference compound]									suppressed progression of proteinuric disease	prevented pseudocyst formation	prevented podocyte loss	did not affect	did not affect	did not affect	complete suppression of proteinuria down to baseline levels

From patent publication US11370769B2, “TRPC5 inhibitors and methods of using same” (BOARD OF REGENTS OF THE UNIVERSITY OF NEBRASKA, priority 2017, dated 2022)
